Converted amounts (≈) assume the structure as drawn. Like-named read-outs stand apart in the source and are kept apart here.
What was measured:
[1] = test system: Krobsiella pneumoniae ATCC 10081; assay: Agar dilution MIC, pH 8.0: Krobsiella pneumoniae ATCC 10081; type: cell-based
[2] = test system: Escherichia coli KY 8327; assay: Agar dilution MIC, pH 8.0: Escherichia coli KY 8327; type: cell-based
Source text: (§1) The former bacterium inactivates kanamycins and gentamicins by adenylation, and the latter inactivates gentamicins by acetylation.

[3] = test system: Proteus vulgaris ATCC 6897; assay: Agar dilution MIC, pH 8.0: Proteus vulgaris ATCC 6897; type: cell-based
[4] = test system: Escherichia coli KY 8348; assay: Agar dilution MIC, pH 8.0: Escherichia coli KY 8348; type: cell-based
Source text: as §1

[5] = test system: Escherichia coli ATCC 26; assay: Agar dilution MIC, pH 8.0: Escherichia coli ATCC 26; type: cell-based
[6] = test system: Pseudomanas aeruginosa BMH 1; assay: Agar dilution MIC, pH 8.0: Pseudomonas aeruginosa BMH 1; type: cell-based
[7] = test system: Staphylococcus aureus ATCC 6538P; assay: Agar dilution MIC, pH 8.0: Staphylococcus aureus ATCC 6538P; type: cell-based; details: ATCC6538P
[8] = test system: Bacillus subtilis No. 10707; assay: Agar dilution MIC, pH 8.0: Bacillus subtilis No. 10707; type: cell-based
[9] = test system: strains of Escherichia coli having an R factor; assay: Anti-bacterial activity against Escherichia coli having an R factor; type: cell-based; details: E. coli having an R factor which shows resistance to known aminoglycoside antibiotics
[10] = test system: Shigella seanei ATCC 9250; assay: microbe, parasite or virus in culture; type: cell-based
[11] = Solubility; type: physicochemical
[12] = test system: Sarcina lucca ATCC 9341; assay: Agar dilution MIC, pH 7.2: Sarcina lucca ATCC 9341; type: cell-based; details: ATCC9341, pH 7.2, read-out: Minimum Inhibitory Concentration
[13] = test system: Proteus marganii KY 4298; assay: Agar dilution MIC, pH 7.2: Proteus marganii KY 4298; type: cell-based
[14] = test system: Pseudomonas aeruginosa BMH No. 1; assay: Agar dilution MIC, pH 7.2: Pseudomonas aeruginosa BMH No. 1; type: cell-based
[15] = test system: Bacillus subtillus ATCC 6688; assay: Agar dilution MIC, pH 7.2: Bacillus subtillus ATCC 6688; type: cell-based
[16] = test system: Salmanella typhosa ATCC 9992; assay: microbe, parasite or virus in culture; type: cell-based
[17] = test system: Proteus Mirabilis 1287; assay: Agar dilution MIC, pH 7.2: Proteus Mirabilis 1287; type: cell-based; details: pH 7.2, read-out: Minimum Inhibitory Concentration
[18] = test system: Klebsiella pneumoniae No. 8045; assay: Agar dilution MIC, pH 7.2: Klebsiella pneumoniae No. 8045; type: cell-based; details: NO.8045, pH 7.2, read-out: Minimum Inhibitory Concentration
[19] = test system: staphylococcus aureus Smith; assay: Agar dilution MIC, pH 7.2: Staphylococcus aureus Smith; type: cell-based; details: pH 7.2, read-out: Minimum Inhibitory Concentration
[20] = test system: Escherichia coli KY 8321; assay: Agar dilution MIC, pH 7.2: Escherichia coli KY 8321; type: cell-based; details: KY8321, pH 7.2, read-out: Minimum Inhibitory Concentration
[21] = test system: Escherichia coli T-5; assay: Agar dilution MIC, pH 7.2: Escherichia coli T-5; type: cell-based; details: T5, pH 7.2, read-out: Minimum Inhibitory Concentration
[22] = test system: Proteus vulgaris 6897; assay: Agar dilution MIC, pH 7.2: Proteus vulgaris 6897; type: cell-based; details: Proteus vulgaris, 6897, pH 7.2, read-out: Minimum Inhibitory Concentration
[23] = test system: Pseudomonas aeruginosa KY 8510; assay: Agar dilution MIC, pH 7.2: Pseudomonas aeruginosa KY 8510; type: cell-based; details: KY8510, pH 7.2, read-out: Minimum Inhibitory Concentration
[24] = test system: Pseudomonas aeruginosa KY 8516; assay: Agar dilution MIC, pH 7.2: Pseudomonas aeruginosa KY 8516; type: cell-based; details: KY8516, pH 7.2, read-out: Minimum Inhibitory Concentration
[25] = test system: Escherichia coli T-2; assay: Agar dilution MIC, pH 7.2: Escherichia coli T-2; type: cell-based; details: T2, pH 7.2, read-out: Minimum Inhibitory Concentration
[26] = test system: Pseudomonas aeruginosa KY 8511; assay: Agar dilution MIC, pH 7.2: Pseudomonas aeruginosa KY 8511; type: cell-based; details: KY8511, pH 7.2, read-out: Minimum Inhibitory Concentration
[27] = test system: Pseudomonas aeruginosa KY 8512; assay: Agar dilution MIC, pH 7.2: Pseudomonas aeruginosa KY 8512; type: cell-based; details: KY8512, pH 7.2, read-out: Minimum Inhibitory Concentration
Source text: ^7 produces neamycinkanamycin phosphotransferase Type

[28] = test system: staphylococcus aureus 209P; assay: Agar dilution MIC, pH 7.2: Staphylococcus aureus 209P; type: cell-based; details: pH 7.2, read-out: Minimum Inhibitory Concentration
[29] = agar-dilution method, pH 8.0, read-out: Minimum Inhibitory Concentration
[30] = ATCC6897, agar-dilution method, pH 8.0, read-out: Minimum Inhibitory Concentration
[31] = ATCC26, agar-dilution method, pH 8.0, read-out: Minimum Inhibitory Concentration
[32] = ATCC9250, agar-dilution method, pH 8.0, read-out: Minimum Inhibitory Concentration
[33] = pH 8, read-out: Minimum Inhibitory Concentration

In the case of CNC[C@@H]1CC[C@@H](NC(=O)[C@@H](O)CCN)[C@@H](O[C@H]2[C@H](O)[C@@H](O[C@H]3OC[C@](C)(O)[C@H](NC)[C@H]3O)[C@H](NC(=O)[C@@H](O)CCN)C[C@@H]2N)O1 [III, 1-N-2'-N-bis-[L-(-)-α-hydroxy-γ-aminobutyryl]XK -62-2], the MIC [1, 29] is reported as 0.065 µg/mL (≈ 0.0976 µM), the MIC ([2]; Escherichia coli, KY8327, agar-dilution method, pH 8.0, strain produces gentamicin adenyltransferase, read-out: Minimum Inhibitory Concentration) is reported as 0.065 µg/mL (≈ 0.0976 µM) and the “anti-bacterial activity” value ([2]; comparison of MIC in Table 1, E. coli KY 8327) is reported as “strong anti-bacterial activity”. For the same molecule, the MIC [3, 30] was 0.521 µg/mL (≈ 0.783 µM), the MIC ([4]; Escherichia coli, KY8348, agar-dilution method, pH 8.0, strain produces gentamicin acetyltransferase Type I, read-out: Minimum Inhibitory Concentration) was 0.065 µg/mL (≈ 0.0976 µM) and the “anti-bacterial activity” value ([4]; comparison of MIC in Table 1, E. coli KY 8348) was “strong anti-bacterial activity”. It also gave an MIC [5, 31] of 0.065 µg/mL (≈ 0.0976 µM), an MIC ([6]; BMH1, agar-dilution method, pH 8.0, read-out: Minimum Inhibitory Concentration) of 8.34 µg/mL (≈ 12.5 µM) and an MIC [7, 29] of 0.065 µg/mL (≈ 0.0976 µM). For the same molecule, the MIC ([8]; NO.10707, agar-dilution method, pH 8.0, read-out: Minimum Inhibitory Concentration) was 0.008 µg/mL (≈ 0.012 µM), the anti-bacterial activity [9] was “strong anti-bacterial activity” and the MIC [10, 32] was 0.26 µg/mL (≈ 0.391 µM).
In the case of CNC[C@@H]1CC[C@@H](N)[C@@H](O[C@H]2[C@H](O)[C@@H](O[C@H]3OC[C@](C)(O)[C@H](NC)[C@H]3O)[C@H](N)C[C@@H]2N)O1 [XK-62-2], the MIC [1, 29] is reported as 0.004 µg/mL (≈ 0.00863 µM), the solubility ([11]; in chloroform, benzene, ethyl acetate and n-hexane) is reported as “insoluble” and the solubility ([11]; in ethanol and acetone) is reported as “slightly soluble”. For the same molecule, the solubility ([11]; in water and methanol) was “well soluble”, the MIC [12] was 0.4 µg/mL (≈ 0.863 µM) and the MIC ([13]; agar dilution method, pH 7.2, read-out: Minimum Inhibitory Concentration) was 0.4 µg/mL (≈ 0.863 µM). The MIC [3, 30] was 0.033 µg/mL (≈ 0.0712 µM), the MIC ([14]; BMHNO.1, agar dilution method, pH 7.2, read-out: Minimum Inhibitory Concentration) was 0.78 µg/mL (≈ 1.68 µM) and the MIC [5, 31] was 0.016 µg/mL (≈ 0.0345 µM). For the same molecule, the MIC ([15]; ATCC6688, agar dilution method, pH 7.2, read-out: Minimum Inhibitory Concentration) was < 0.05 µg/mL, the MIC [16, 29] was 0.008 µg/mL (≈ 0.0173 µM) and the MIC [10, 32] was 0.033 µg/mL (≈ 0.0712 µM).
Molecule NC[C@H]1O[C@H](O[C@H]2[C@H](O)[C@@H](O[C@H]3O[C@H](CO)[C@@H](O)[C@H](N)[C@H]3O)[C@H](N)C[C@@H]2N)[C@H](O)[C@@H](O)[C@@H]1O [Kanamycin A, kanamycin A] has an MIC [1, 33] of 0.042 µg/mL (≈ 0.0867 µM), an MIC [17] of 6.25 µg/mL (≈ 12.9 µM) and an MIC [18] of 0.4 µg/mL (≈ 0.826 µM). It also gave an MIC [12] of 6.25 µg/mL (≈ 12.9 µM), an MIC ([13]; pH 7.2, read-out: Minimum Inhibitory Concentration) of 1.56 µg/mL (≈ 3.22 µM) and an MIC ([3]; ATCC6897, pH 8, read-out: Minimum Inhibitory Concentration) of 0.16 µg/mL (≈ 0.33 µM). The MIC [19] was 0.2 µg/mL (≈ 0.413 µM), the MIC [20] was 100 µg/mL (≈ 206 µM) and the MIC [21] was 1.56 µg/mL (≈ 3.22 µM). The MIC ([14]; BMHNO.1, pH 7.2, read-out: Minimum Inhibitory Concentration) was 12.5 µg/mL (≈ 25.8 µM), the MIC [22] was 3.12 µg/mL (≈ 6.44 µM) and the MIC ([5]; ATCC26, pH 8, read-out: Minimum Inhibitory Concentration) was 0.16 µg/mL (≈ 0.33 µM). The MIC ([15]; ATCC6688, pH 7.2, read-out: Minimum Inhibitory Concentration) was 0.2 µg/mL (≈ 0.413 µM), the MIC [23] was 100 µg/mL (≈ 206 µM) and the MIC [24] was > 100 µg/mL. It also gave an MIC [16, 33] of 0.088 µg/mL (≈ 0.182 µM), an MIC ([6]; BMH1, pH 8, read-out: Minimum Inhibitory Concentration) of 5.2 µg/mL (≈ 10.7 µM) and an MIC [25] of 1.56 µg/mL (≈ 3.22 µM). It also gave an MIC [7, 33] of 0.021 µg/mL (≈ 0.0433 µM), an MIC ([8]; NO.10707, pH 8, read-out: Minimum Inhibitory Concentration) of 0.021 µg/mL (≈ 0.0433 µM) and an MIC [26] of 100 µg/mL (≈ 206 µM). For the same molecule, the MIC [27] was 12.5 µg/mL (≈ 25.8 µM), the MIC [28] was 0.2 µg/mL (≈ 0.413 µM) and the MIC ([10]; ATCC9250, pH 8, read-out: Minimum Inhibitory Concentration) was 0.16 µg/mL (≈ 0.33 µM).

Reference: patent US4218562A, “Antibiotic derivatives of XK-62-2” (Abbott Laboratories, priority 1978, dated 1980)
